Read-outs that look alike come from different tables or passages of the source.
Test system: human osteosarcoma DM113
Type: in vivo
Conditions: for Tumor Volume Data (Day 28) Median / ΔT/ΔC %: day 28; for MTTE / T-C: volume endpoint 1600 mm^3
Procedure: The resultant solution contains 10 mg/mL of cabazitaxel. Stock solution of cabazitaxel was then diluted in 0.9% sodium chloride.
This efficacy may be quantified, for example, as changes in tumor volume for each treated (T) and control (C) group, which are calculated for each animal and each day by subtracting the tumor volume on the day of first treatment (staging day) from the tumor volume on the specified observation day. This allows calculating the tumor growth inhibition: ΔT/ΔC=(median delta T/median delta C)×100. Individual tumor volume changes from baseline are thereafter analyzed by a non-parametric two-way ANOVA-TYPE (with factors: group and repeated days) followed by a post-hoc contrasts analysis, with Bonferroni-Holm adjustment for multiplicity, comparing all treated groups to the control group. […] A probability less than 5% (p<0.05) was considered as significant.
Based on the National Cancer Institute (NCl) standards, a ΔT/ΔC≦40% is the minimal level required to declare activity.
This efficacy may also be quantified by the number of tumor regressions observed after therapy. Individual mice reporting a tumor volume ≦50% of the Day 0 measurement for two consecutive measurements over a seven day period were considered partial responders (PR). Individual mice lacking palpable tumors (<4×4 mm^2 for two consecutive measurements over a seven day period) were classified as complete responders (CR); a CR that persisted until study completion was considered a tumor-free survivor (TFS).
Efficacy could also be determined at study completion, using tumor growth delay (T-C) in days, which is calculated using the median time to endpoint (MTTE) value for each treatment (T) group versus control (C). A Log Rank multiple comparison test with Bonferroni-Holm adjustment for multiplicity was applied on individual TTE to compare the treated groups to the control group.
The animals subjected to the experiment are subcutaneously grafted unilaterally with approximately 30 mg of a tumor fragment from low passage pediatric patient-derived tumor xenografts. The animals are implanted with a human patient-derived pediatric tumor xenografted in immuno-compromised mice (Harlan; nu/nu). Several days post tumor implantation, mice are randomized according to their tumor burden to the different groups of treatments and controls. The agents are dosed intravenously at 5.8, 9.3, 15 or 24.2 mg/kg every 4 days for a total of 3 doses (q4d×3) to mice bearing a tumor burden at start of therapy (day 0) ranged from 125 to 250 mm^3.
Beginning Day 0, animals were observed daily and weighed twice weekly using a digital scale; data including individual and mean gram weights (Mean We±SD), mean percent weight change versus Day 0 were recorded for each group. Animal deaths were recorded daily and designated as drug-related (D), technical (T), tumor related (B), or unknown (U) based on weight loss and gross observation; single agent or combination groups reporting a mean >20% for a period of 7 days and/or >10% mortality were considered above the maximum tolerated dose (MTD) for that treatment on the evaluated regimen.
The selected tumor model, DM113, was a low passage patient-derived tumor xenograft derived from an osteosarcoma taken from the lung of a patient.
The following end points were used: • Toxicity was declared at dosages inducing ≧20% body weight loss or ≧10% drug death; • Antitumor efficacy was determined by calculating the ΔT/ΔC value in percent on day 28 post treatment initiation, according to the above mentioned formula; • Individual tumor volume changes from baseline were analyzed by a non-parametric two-way ANOVA-TYPE (with factors: group and repeated day from 3 to 28) followed by a post-hoc contrasts analysis, with Bonferroni-Holm adjustment for multiplicity, comparing all treated groups to the control group on day 28. […] The volume endpoint for T-C calculations was chosen to be 1600 mm^3.

CO[C@H]1C(=O)[C@]2(C)[C@@H](OC)C[C@H]3OC[C@@]3(OC(C)=O)[C@H]2[C@H](OC(=O)c2ccccc2)[C@]2(O)C[C@H](OC(=O)[C@H](O)[C@@H](NC(=O)OC(C)(C)C)c3ccccc3)C(C)=C1C2(C)C [Cabazitaxel, 4α-acetoxy-2α-benzoyloxy-5β,20-epoxy-1β-hydroxy-7β,10β-dimethoxy-9-oxo-11-taxen-13α-yl (2R,3S)-3-tert-butoxycarbonyl-amino-2-hydroxy-3-phenylpropionate]
#CR (5.8 mg/kg i.v./q4dx3): 0/0/0 | #PR (5.8 mg/kg i.v./q4dx3): 0/0/0 | #TFS (5.8 mg/kg i.v./q4dx3): 0/0/0 | Drug Deaths Total (5.8 mg/kg i.v./q4dx3): 0 | Tumor Volume Data (Day 28) Median (5.8 mg/kg i.v./q4dx3): 512.5 mm^3 | ΔT/ΔC % (5.8 mg/kg i.v./q4dx3): 29.4% | MTTE (5.8 mg/kg i.v./q4dx3): 47 days | T-C (5.8 mg/kg i.v./q4dx3): 16 days | tumor volume changes from baseline, Median +/− MAD (5.8 mg/kg, DAY 3): 58 +/− 21.5 | tumor volume changes from baseline, Median +/− MAD (5.8 mg/kg, DAY 8): 63.5 +/− 37 | tumor volume changes from baseline, Median +/− MAD (5.8 mg/kg, DAY 11): 63.5 +/− 21.5 | tumor volume changes from baseline, Median +/− MAD (5.8 mg/kg, DAY 14): 95 +/− 41.5 | tumor volume changes from baseline, Median +/− MAD (5.8 mg/kg, DAY 17): 95 +/− 59 | tumor volume changes from baseline, Median +/− MAD (5.8 mg/kg, DAY 21): 158.5 +/− 39.5 | tumor volume changes from baseline, Median +/− MAD (5.8 mg/kg, DAY 24): 234 +/− 83.5 | tumor volume changes from baseline, Median +/− MAD (5.8 mg/kg, DAY 28): 334.5 +/− 96 | tumor volume changes from baseline, Median +/− MAD (5.8 mg/kg, DAY 31): 459.5 +/− 123 | tumor volume changes from baseline, Median +/− MAD (5.8 mg/kg, DAY 35): 579.5 +/− 228 | tumor volume changes from baseline, Median +/− MAD (5.8 mg/kg, DAY 38): 834.5 +/− 245 | tumor volume changes from baseline, Median +/− MAD (5.8 mg/kg, DAY 42): 1097 +/− 248 | tumor volume changes from baseline, Median +/− MAD (5.8 mg/kg, DAY 46): 1548.5 +/− 438.5 | #CR (9.3 mg/kg i.v./q4dx3): 0/0/0 | #PR (9.3 mg/kg i.v./q4dx3): 0/0/0 | #TFS (9.3 mg/kg i.v./q4dx3): 0/0/0 | Drug Deaths Total (9.3 mg/kg i.v./q4dx3): 0 | Weight Nadir % (9.3 mg/kg i.v./q4dx3): −3% | Weight Nadir Day (9.3 mg/kg i.v./q4dx3): 3 | Tumor Volume Data (Day 28) Median (9.3 mg/kg i.v./q4dx3): 204 mm^3 | ΔT/ΔC % (9.3 mg/kg i.v./q4dx3): 1.8% | MTTE (9.3 mg/kg i.v./q4dx3): >59 days | T-C (9.3 mg/kg i.v./q4dx3): >28 days | tumor volume changes from baseline, Median +/− MAD (9.3 mg/kg, DAY 3): 29.5 +/− 27 | tumor volume changes from baseline, Median +/− MAD (9.3 mg/kg, DAY 8): 29.5 +/− 29.5 | tumor volume changes from baseline, Median +/− MAD (9.3 mg/kg, DAY 11): 29.5 +/− 29.5 | tumor volume changes from baseline, Median +/− MAD (9.3 mg/kg, DAY 14): 9 +/− 9 | tumor volume changes from baseline, Median +/− MAD (9.3 mg/kg, DAY 17): 0 +/− 0 | tumor volume changes from baseline, Median +/− MAD (9.3 mg/kg, DAY 21): 0 +/− 9 | tumor volume changes from baseline, Median +/− MAD (9.3 mg/kg, DAY 24): 0 +/− 31 | tumor volume changes from baseline, Median +/− MAD (9.3 mg/kg, DAY 28): 20 +/− 39.5 | tumor volume changes from baseline, Median +/− MAD (9.3 mg/kg, DAY 31): 69 +/− 69 | tumor volume changes from baseline, Median +/− MAD (9.3 mg/kg, DAY 35): 87.5 +/− 70.5 | tumor volume changes from baseline, Median +/− MAD (9.3 mg/kg, DAY 38): 182 +/− 155.5 | tumor volume changes from baseline, Median +/− MAD (9.3 mg/kg, DAY 42): 311 +/− 248 | tumor volume changes from baseline, Median +/− MAD (9.3 mg/kg, DAY 46): 576 +/− 317.5 | #CR (15 mg/kg i.v./q4dx3): 0 | #PR (15 mg/kg i.v./q4dx3): 4 | #TFS (15 mg/kg i.v./q4dx3): 0 | Drug Deaths Total (15 mg/kg i.v./q4dx3): 0 | Weight Nadir % (15 mg/kg i.v./q4dx3): −9% | Weight Nadir Day (15 mg/kg i.v./q4dx3): 14 | Tumor Volume Data (Day 28) Median (15 mg/kg i.v./q4dx3): 131 mm^3 | ΔT/ΔC % (15 mg/kg i.v./q4dx3): −4.4% | MTTE (15 mg/kg i.v./q4dx3): >59 days | T-C (15 mg/kg i.v./q4dx3): >28 days | numbers of PR (15 mg/kg q4d×3 IV): 4/10 | tumor volume changes from baseline, Median +/− MAD (15 mg/kg, DAY 3): 13 +/− 13 | tumor volume changes from baseline, Median +/− MAD (15 mg/kg, DAY 8): 0 +/− 0 | tumor volume changes from baseline, Median +/− MAD (15 mg/kg, DAY 11): −23.5 +/− 23.5 | tumor volume changes from baseline, Median +/− MAD (15 mg/kg, DAY 14): −40.5 +/− 30 | tumor volume changes from baseline, Median +/− MAD (15 mg/kg, DAY 17): −40.5 +/− 30 | tumor volume changes from baseline, Median +/− MAD (15 mg/kg, DAY 21): −40.5 +/− 30 | tumor volume changes from baseline, Median +/− MAD (15 mg/kg, DAY 24): −50 +/− 36.5 | tumor volume changes from baseline, Median +/− MAD (15 mg/kg, DAY 28): −50 +/− 36.5 | tumor volume changes from baseline, Median +/− MAD (15 mg/kg, DAY 31): −53 +/− 36.5 | tumor volume changes from baseline, Median +/− MAD (15 mg/kg, DAY 35): −59.5 +/− 29 | tumor volume changes from baseline, Median +/− MAD (15 mg/kg, DAY 38): −59.5 +/− 39.5 | tumor volume changes from baseline, Median +/− MAD (15 mg/kg, DAY 42): −59.5 +/− 39.5 | tumor volume changes from baseline, Median +/− MAD (15 mg/kg, DAY 46): −59.5 +/− 42.5 | #CR (24.2 mg/kg i.v./q4dx3): 0 | #PR (24.2 mg/kg i.v./q4dx3): 5 | #TFS (24.2 mg/kg i.v./q4dx3): 0 | Drug Deaths Total (24.2 mg/kg i.v./q4dx3): 0 | Weight Nadir % (24.2 mg/kg i.v./q4dx3): −11% | Weight Nadir Day (24.2 mg/kg i.v./q4dx3): 11 | Tumor Volume Data (Day 28) Median (24.2 mg/kg i.v./q4dx3): 112 mm^3 | ΔT/ΔC % (24.2 mg/kg i.v./q4dx3): −3.6% | MTTE (24.2 mg/kg i.v./q4dx3): >59 days | T-C (24.2 mg/kg i.v./q4dx3): >28 days | numbers of PR (24.2 mg/kg q4d×3 IV): 5/10 | tumor volume changes from baseline, Median +/− MAD (24.2 mg/kg, DAY 3): 9.5 +/− 9.5 | tumor volume changes from baseline, Median +/− MAD (24.2 mg/kg, DAY 8): 0 +/− 26.5 | tumor volume changes from baseline, Median +/− MAD (24.2 mg/kg, DAY 11): −40.5 +/− 34 | tumor volume changes from baseline, Median +/− MAD (24.2 mg/kg, DAY 14): −43.5 +/− 28.5 | tumor volume changes from baseline, Median +/− MAD (24.2 mg/kg, DAY 17): −40.5 +/− 24.5 | tumor volume changes from baseline, Median +/− MAD (24.2 mg/kg, DAY 21): −40.5 +/− 24.5 | tumor volume changes from baseline, Median +/− MAD (24.2 mg/kg, DAY 24): −40.5 +/− 40.5 | tumor volume changes from baseline, Median +/− MAD (24.2 mg/kg, DAY 28): −40.5 +/− 40.5 | tumor volume changes from baseline, Median +/− MAD (24.2 mg/kg, DAY 31): −40.5 +/− 34 | tumor volume changes from baseline, Median +/− MAD (24.2 mg/kg, DAY 35): −51 +/− 41.5 | tumor volume changes from baseline, Median +/− MAD (24.2 mg/kg, DAY 38): −51 +/− 41.5 | tumor volume changes from baseline, Median +/− MAD (24.2 mg/kg, DAY 42): −51 +/− 41.5 | tumor volume changes from baseline, Median +/− MAD (24.2 mg/kg, DAY 46): −51 +/− 41.5 | antitumor activity compared with docetaxel (conclusion of example 5, 9.3, 15 and 24.2 mg/kg dose levels): higher efficacy than docetaxel

Source: US20140350273A1, “PEDIATRIC USES OF CABAZITAXEL” (AVENTIS PHARMA S.A., priority 2012, published 2014)
